Results published in patent US20260166182A1, “CYANINE-BASED FLUOROPHORES” (The General Hospital Corporation, priority 2022, published 2026).
Values joined by “and” are separate entries in the source; they are usually repeats but may differ in a detail not shown here. Equal entries are not always repeated.

Experiments:
[1] = Optical properties and NIR-II quantum yield in 5% BSA saline; assay type: physicochemical
Description: Fluorescence Quantum yield measurement and physicochemical properties: The absorption and emission spectra of fluorophores were measured in 5% BSA saline using UV/Vis/NIR spectrometers (USB2000+VIS+NIR+ES and Flame-NIR, Ocean Insight, Dunedin, FL). Fluorescence emission spectra were collected by NIR excitation with an 808-nm laser. To calculate NIR-II fluorescence quantum yield, the following equation was used:
[formula] • where QYsample is the QY of SH1, QYref is the QY of ICG in 30% FBS supplemented with 50 mM HEPES, nsample and nref are the refractive indices of SH1 and ICG solutions which are both water (1.33) in this case. In silico calculations of molecular weight, the distribution coefficient (LogD at pH 7.4), surface molecular charge, polarizability, and 3D molecular surface area were performed using MarvinSketch (ChemAxon, Budapest, Hungary).

[2] = test system: LLC cells; experiment: Cytotoxicity study (CCK-8 cell proliferation); assay type: cell-based; conditions: 24 h incubation
Description: Cytotoxicity study: 200 μL of cell suspension was added into a 96-well plate to have 5000 cells in each well. The plate was pre-incubated for 24 hours in a humidified incubator for cells to attach on the bottom of the plate. Stock solutions of SH1, IR-780, and DMSO were premixed with the cell culture media (DMEM containing 10% FBS) to 50 μM, and premixed solutions were filtered using a syringe filter ([…]), and then were diluted to final concentrations of 1-25 μM. After cells reached the desired density (40-50% confluency), the existing media was removed and exchanged with the above solutions at certain concentrations. The plate was further incubated for 24 h. The cell proliferation was determined using a CCK-8 Kit.

[3] = test system: pancreatic ductal adenocarcinoma (PDAC; Pan02 cell); experiment: NIR-II fluorescence imaging of subcutaneous PDAC tumor-bearing C57BL/6 mice; assay type: in vivo, mouse
Description: (§1) General NIR-II fluorescence imaging: A 640×512-pixel InGaAs camera (Ninox640, Raptor Photonics) and macro zoom lens (0-10×; Navitar Zoom 7000 with SWIR coating) along with 900, 1070, 1100, and 1200 nm long-pass (LP) filters from either Thorlab or Edmund optics were used to collect the NIR-II signal. InGaAs camera played a role as an open-air imaging system along with the support of the FLARE system. An 808 nm fiber-coupled diode laser ([…] at the sample) was used as an excitation source. Data acquisition was done using in-house developed software. The mice fur on the region of interest was shaved prior to imaging using a clipper and removed completely using a depilatory cream. 100 μL of SH1 in 5 w/v % BSA saline ([…]) was injected through the tail vein. Mice were imaged with intact skin using InGaAs camera. At least 3 mice were analyzed for each sample. […]
(§2) Statistical analysis: The fluorescence and background intensities of a region of interest over each tissue were quantified using customized imaging software and ImageJ v1.48 (National Institutes of Health, Bethesda, MD). The signal-to-background ratio (SBR) was calculated as SBR=fluorescence/background, where background was the fluorescence intensity of muscle. […] The differences among groups were determined using one-way ANOVA analysis to assess the statistical differences among more than two groups. […]

[4] = test system: orthotopic lung cancer (LLC cell); experiment: Orthotopic lung tumor targeting; assay type: in vivo, mouse; conditions: 50 nmol, 48 h prior to imaging
Description: as §1, §2

[5] = test system: PDAC (Pan02 cell line); experiment: Tumor targeting in Pan02 inoculated immune-deficient athymic nude mice; assay type: in vivo, mouse
Description: General NIR-II fluorescence imaging: A 640×512-pixel InGaAs camera (Ninox640, Raptor Photonics) and macro zoom lens (0-10×; Navitar Zoom 7000 with SWIR coating) along with 900, 1070, 1100, and 1200 nm long-pass (LP) filters from either Thorlab or Edmund optics were used to collect the NIR-II signal. InGaAs camera played a role as an open-air imaging system along with the support of the FLARE system. An 808 nm fiber-coupled diode laser ([…] at the sample) was used as an excitation source. Data acquisition was done using in-house developed software. The mice fur on the region of interest was shaved prior to imaging using a clipper and removed completely using a depilatory cream. 100 μL of SH1 in 5 w/v % BSA saline ([…]) was injected through the tail vein. Mice were imaged with intact skin using InGaAs camera. At least 3 mice were analyzed for each sample.
as §2

[6] = test system: LLC tumor; experiment: Tumor histopathology with NIR fluorescence microscopy of resected LLC tumors; assay type: in vivo, mouse; conditions: histological NIR images
Description: Tumor histopathology evaluation: […] After rinsing with PBS, the fixed sections were counterstained with nuclear fast red, dehydrated by ethanol, transferred into xylene, and finally mounted according to the standard protocol. To determine the tissue distribution of the NIR fluorophore, the dissected tissues were embedded in Tissue-Tek optimum cutting temperature compound (Sakura Finetek, Torrance, CA) without a pre-fixation step. The tissue block was frozen at −80° C. Frozen sections were cut at a thickness of 10 or 50 μm by a cryostat (Leica, Germany). Then, the tissue sections were stained with hematoxylin and eosin (H&E). The BioTek Cytation 5 (Winooski, VT) was used for pathological fluorescence imaging and observation.

## CCCCN1/C(=C/C=C2\CCCC(/C=C/C3=[N+](CCCC)c4ccc(Cl)cc4C3(C)C)=C2Cl)C(C)(C)c2cc(Cl)ccc21 [SH1, 1-butyl-2-((E)-2-((E)-3-(2-((E)-1-butyl-5-chloro-3,3-dimethylindolin-2-ylidene)ethylidene)-2-chlorocyclohex-1-en-1-yl)vinyl)-5-chloro-3,3-dimethyl-3H-indol-1-ium]
[1]; 5% BSA saline
  NIR-II tail emission up to: ~1250 nm
  extinction coefficient: 333,600 M^−1 cm^−1
  fluorescence emission maximum (NIR-I): 820 nm
[1]; 5 w/v % BSA saline
  quantum yield: 11%
[1]; 808 nm excitation, 1,070 nm LP
  brightness in the NIR-II region relative to ICG: 2.2 fold
  brightness in the NIR-II region relative to IR-780: 1.7 fold
[1]; NIR-II region
  fluorescence brightness in the NIR-II region compared with ICG: 225%
[2]
  concentration that did not affect cell proliferation: up to 10 μM
[3]; PDAC less than 5 mm in size, compared to healthy tissue
  TBR: ~9.5
[3]; intravenous, until 24 h post-injection
  onset of signals in the cancerous region: did not appear at early time points
[4]
  TBR against normal tissue: 47.3
  TBR against the lung: 3.12
[5]
  tumor-to-muscle signal ratio (TMR): ~3.0 and 3.6
[6]
  fluorescence signal location in resected tumor: strong fluorescence signals in the targeted tumor
